# Experimental data: patent US20220213156A1, “Peptides for use in therapy or prophylaxis of Herpesviridae-infections” (priority 2019, published 2022)
# Where two headings read alike, the source gives them in different places. Residues, ends and D or L forms follow the SMILES beside them.
# Columns and labels:
# [1] = system: zebrafish embryos; type: in vivo; conditions: exposure from 6-7 hpf
# Description: To test HD5 (1-9) (SEQ ID No. 1) for toxicity and to assess its effect on embryonic development in zebrafish, embryos obtained from natural crosses of wildtype TE fish were used. After mating, embryos were incubated at 28° C. until 6 h postfertilization (hpf). Triplicates of five embryos each were then placed in wells of a 96-well plate containing 200 μl of different peptide concentrations. HD5 (1-9) (SEQ ID No. 1) dissolved in PBS was diluted in normal embryo medium (250 mg/L Instant Ocean salt, 1 mg/L methylene blue in reverse osmosis water adjusted to pH 7 with NaHCO3) (Muller et al., “Differential diffusivity of Nodal and Lefty underlies a reaction-diffusion patterning system”; Science 336 (6082):721-724, 2012). The concentrations tested were 25 μM, 75 μM, 125 μM and 250 μM, and the concentration of PBS solvent was adjusted for each control group. At peptide concentrations of 75 μM and above we observed granulae in some wells, which could represent peptide accumulations. As a control, embryos were additionally incubated in 25 μg/ml cycloheximide (C4859, Sigma-Aldrich). After 13 hpf, 24 hpf and 48 hpf a microscopic phenotype analysis was performed. For each time point embryos were automatically imaged using an ACQUIFER Imaging Machine. For the phenotype analysis at 48 hpf, the larvae were manually dechorionated and anaesthetized with 2% tricaine methane-sulfonate (A5040-25G, Sigma-Aldrich). Images were acquired on an Axio Zoom.V16 microscope (ZEISS).
# As a first test of HD5 (1-9) (SEQ ID No. 1) toxicity in vivo, as well as to elucidate potential effects of the peptide on embryonic development, experiments with zebrafish embryos were performed (He et al., 2014). Embryos were treated with HD5 (1-9) (SEQ ID No. 1) at concentrations of 25 μM, 75 μM, 125 μM and 250 μM starting at 6-7 h post fertilization (hpf), which is the time point recommended by pharmaceutical company-utilized assays to assess toxic effects of compounds on early embryonic development (Ball et al., 2014). Phenotypes were analyzed at 13.24 and 48 hpf (data not shown). […] Impaired development at 250 μM peptide exposure was also evident over the whole observation period, leading to the death of 11 embryos and 4 embryos having severe developmental delays by 48 hpf.
# [2] = system: TB40-BACKL7-UL32EGFP-UL 100mCherry; assay: Attachment of fluorescently tagged viral particles to HFF; type: cell-based, Human Cytomegalovirus; conditions: HFF preincubated with peptide 1 h, 6 h after infection, data not shown
# Description: In additional experiments, […] (encoding for pp150) was GFP (green fluorescence protein)-tagged, UL100 (encoding for gM) was mCherry-tagged. This allowed discrimination between enveloped particles, which were EGFP and mCherry-positive and appeared yellow, and non-enveloped particles, which were only EGFP-positive and appeared green.
# HFF were preincubated with peptide in the corresponding concentration 1 h at 37° C. and then infected TB40-BACKL7-UL32EGFP-UL 100mCherry. After 6 h of incubation, cells were fixed and stained with DAPI.
structure (smiles),measurement,setting,value
"C[C@H](N)C(=O)N[C@H](C(=O)N[C@@H](CS)C(=O)N[C@@H](Cc1ccc(O)cc1)C(=O)N[C@@H](CS)C(=O)N[C@@H](CCCNC(=N)N)C(=O)N[C@H](C(=O)NCC(=O)N[C@@H](CCCNC(=N)N)C(=O)O)[C@@H](C)O)[C@@H](C)O [HD5 (1-9), ATCYCRTGR] (H-ATCYCRTGR-OH; N-terminus and C-terminus assumed)",embryonic development,[1]; 25 μM or 75 μM,developed normally
same,embryonic development,[1]; 125 μM,approximately half of the embryos having no alterations
same,death of embryos by 48 hpf,[1]; 250 μM,11 embryos
same,embryo death by 13 hpf,[1]; 250 μM,half of the embryos had died
same,embryos having severe developmental delays by 48 hpf,[1]; 250 μM,4 embryos
same,attachment of viral particles,[2],blocks the attachment of viral particles
